Laboratory results: patent US20200131238A1, “METHOD FOR PROMOTING ADIPOCYTE DIFFERENTIATION AND OBESITY-RELATED DISEASE TREATMENT” (AMERICAN UNIVERSITY, priority 2018, published 2020)

Columns and labels:
NRG1 = NRG1 isoform expression in stem cells after DAC treatment (RT-qPCR); assay type: cell-based, human
Excerpt: A. Microarray data showing that NRG1 is preferentially expressed in clonal cell line AF2, both stem cells and adipocytes. UCP1 is a brown adipose tissue (BAT) marker and UCP2 is a white adipose tissue (WAT) marker. Adiponectin (ADIPOQ) shown as a differentiation control. P-values calculated relative to NRG4 using 1-way ANOVA. Analysis of gene expression in mouse adipose precursor cell lines isolated from inguinal (B) or perigonadal (C) depots of a male mouse. […] NRG, Neuregulin; UCP, uncoupling protein; AdipoQ, adiponectin. Isoform-specific epigenetic induction of NRG1 expression in primary human cells, clonal (D) and raw processed lipoaspirate (E). Expression of NRG1 is induced with demethylating agent decitabine (DAC). Types I-III represent distinct transcriptional start sites within the NRG1 locus and produce different mRNA isoforms (see FIG. 7D for map). The Type III isoform is specifically DAC responsive. P-values derived from Tukey's HSD post-hoc test after ANOVA and are relative to corresponding matched DMSO control. Note Type II isoform expression was not detected in the stem cells.
First, by evaluating gene expression in stem cells immediately after DAC treatments (rather than differentiated cells), we minimized secondary gene expression changes caused by the differentiation process itself. […]

AF2 cells = experiment: adipose differentiation assay with AF2 clonal cells; assay type: cell-based, human
Excerpt: Because patient-derived cells, such as ASCs, are highly heterogeneous, it is vital to ensure that the differences in cell behavior are truly fate decisions and not a measure of non-stem cell contamination (perhaps immune cells, fibroblasts, or other cells). We therefore have performed our experiments with clonally-derived cells expanded in the inventor's laboratory. Many of our experiments use a single clonal line isolated from ASC080414A (Zen-Bio, Inc.), called the AF2 line. Clonal isolation has the advantage of minimizing both genetic and epigenetic variance, which enabled us to identify a highly significant signal in our data (FIG. 6E).
First, by evaluating gene expression in stem cells immediately after DAC treatments (rather than differentiated cells), we minimized secondary gene expression changes caused by the differentiation process itself. Second, hypothesizing that the expression of driver genes will more strongly correlate with differentiation efficiency than passenger genes, we obtained the Pearson's correlation between candidate gene expression in stem cells and the relative formation of adipocytes after 14-18 days of adipogenic induction. Third, we used a clonal cell line (AF2) in order to minimize epigenetic variability between cells. […]

Molecule	up-regulation of one NRG1 isoform (Type III) relative to DMSO control (NRG1; 1 μM DAC)	increase of NRG1 Type I isoform (NRG1; DAC vs DMSO)	differentiation induction by recombinant NRG1 peptide added to culture media (AF2 cells; AF2 clonal cells)	activating dose of NRG1 peptide (AF2 cells; stem cells, FIGS. 7A,B,C)
Nc1ncn([C@H]2C[C@H](O)[C@@H](CO)O2)c(=O)n1 [DAC, 5-aza-2′-deoxycitidine]	approximately 10 fold	~2 fold		
NRG1 EGF-β peptide: recombinant NRG1 EGF-β domain peptide, 65 amino acids, BioLegend Cat # 711104 (protein, listed as Homo sapiens) SHLVKCAEKEKTFCVNGGECFMVKDLSNPSRYLCKCPNEFTGDRCQNYVMASFYKHLGIEFMEAE			able to recapitulate the differentiation induction observed with DAC	200 ng/mL
